Laboratory results: the supplement of paper PMC11061612

Key:
Carboplatin = compound: C1CC(C1)(C(=O)[O-])C(=O)[O-].N.N.[Pt+2] [Carboplatin]; conditions: max 10 µM
Outline: (§1)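 Cancer cell lines were seeded in 1536-well plates in 7.5 μl DMEM/F12 or RPMI with 10% FBS, held 24 hours at 37°C and 5% CO2, then dosed for 72 hours (final DMSO typically 0.2%). Viability was read by CellTiter-Glo 2.0 luminescence and scaled between blank-well and DMSO-well means. The single-agent IC50 comes from dose responses fitted to a two-parameter logistic curve with a non-linear mixed effects model.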

AZD5363 = compound: C1CN(CCC1(C(=O)N[C@@H](CCO)C2=CC=C(C=C2)Cl)N)C3=NC=NC4=C3C=CN4 [AZD5363]; conditions: max 10 µM
Outline: as §1

AZD1775 = compound: C=CCn1c(=O)c2cnc(Nc3ccc(N4CCN(C)CC4)cc3)nc2n1-c1cccc(C(C)(C)O)n1 [AZD1775]; conditions: max 3 µM
Outline: as §1

Trametinib = compound: CC(=O)Nc1cccc(-n2c(=O)n(C3CC3)c(=O)c3c(Nc4ccc(I)cc4F)n(C)c(=O)c(C)c32)c1 [Trametinib]; conditions: max 1 µM
Outline: as §1

Paclitaxel = compound: CC(=O)O[C@H]1C(=O)[C@@]2(C)[C@H]([C@H](OC(=O)c3ccccc3)[C@]3(O)C[C@H](OC(=O)[C@H](O)[C@@H](NC(=O)c4ccccc4)c4ccccc4)C(C)=C1C3(C)C)[C@]1(OC(C)=O)CO[C@@H]1C[C@@H]2O [Paclitaxel]; conditions: max 3 µM
Outline: as §1

Palbociclib = compound: CC(=O)c1c(C)c2cnc(Nc3ccc(N4CCNCC4)cn3)nc2n(C2CCCC2)c1=O [Palbociclib]; conditions: max 10 µM
Outline: as §1

AZD1390 = compound: CC(C)n1c(=O)n(C)c2cnc3cc(F)c(-c4ccc(OCCCN5CCCCC5)nc4)cc3c21 [AZD1390]; conditions: max 0.3 µM
Outline: as §1

Venetoclax = compound: CC1(C)CCC(CN2CCN(c3ccc(C(=O)NS(=O)(=O)c4ccc(NCC5CCOCC5)c([N+](=O)[O-])c4)c(Oc4cnc5[nH]ccc5c4)c3)CC2)=C(c2ccc(Cl)cc2)C1 [Venetoclax]; conditions: max 1 µM
Outline: as §1

Dasatinib = compound: CC1=C(C(=CC=C1)Cl)NC(=O)C2=CN=C(S2)NC3=CC(=NC(=N3)C)N4CCN(CC4)CCO [Dasatinib]; conditions: max 2 µM
Outline: as §1

AZD2811 = compound: CCN(CCO)CCCOc1ccc2c(Nc3cc(CC(=O)Nc4cccc(F)c4)[nH]n3)ncnc2c1 [AZD2811]; conditions: max 1 µM
Outline: as §1

SN-38 = compound: CCc1c2c(nc3ccc(O)cc13)-c1cc3c(c(=O)n1C2)COC(=O)[C@]3(O)CC [SN-38]; conditions: max 0.3 µM
Outline: as §1

AZD0156 = compound: CN(C)CCCOc1ccc(-c2ccc3ncc4c(c3c2)n(C2CCOCC2)c(=O)n4C)cn1 [AZD0156]; conditions: max 3 µM
Outline: as §1

AZD4320 = compound: CN(CC[C@H](CSC1=CC=CC=C1)NC2=C(C=C(C=C2)S(=O)(=O)NC(=O)C3=CC=C(C=C3)N4CCC(CC4)[C@H](C5=CC=CC=C5C6=CC=C(C=C6)Cl)O)S(=O)(=O)C(F)(F)F)CCO [AZD4320]; conditions: max 1 µM
Outline: as §1

Etoposide = compound: COc1cc([C@@H]2c3cc4c(cc3[C@@H](O[C@@H]3O[C@@H]5CO[C@@H](C)O[C@H]5[C@H](O)[C@H]3O)[C@H]3COC(=O)[C@H]23)OCO4)cc(OC)c1O [Etoposide]; conditions: max 10 µM
Outline: as §1

Gefitinib = compound: COc1cc2ncnc(Nc3ccc(F)c(Cl)c3)c2cc1OCCCN1CCOCC1 [Gefitinib]; conditions: max 10 µM
Outline: as §1

AZD5153 = compound: COc1nnc2ccc(N3CCC(c4ccc(OCCN5CCN(C)C(=O)[C@H]5C)cc4)CC3)nn12 [AZD5153]; conditions: max 1 µM
Outline: as §1

Lapatinib = compound: CS(=O)(=O)CCNCc1ccc(-c2ccc3ncnc(Nc4ccc(OCc5cccc(F)c5)c(Cl)c4)c3c2)o1 [Lapatinib]; conditions: max 10 µM
Outline: as §1

AZD8186 = compound: C[C@@H](Nc1cc(F)cc(F)c1)c1cc(C(=O)N(C)C)cc2c(=O)cc(N3CCOCC3)oc12 [AZD8186]
Outline: as §1

Crizotinib = compound: C[C@@H](Oc1cc(-c2cnn(C3CCNCC3)c2)cnc1N)c1c(Cl)ccc(F)c1Cl [Crizotinib]; conditions: max 10 µM
Outline: as §1

Savolitinib = compound: C[C@@H](c1ccc2nccn2c1)n1nnc2ncc(-c3cnn(C)c3)nc21 [Savolitinib]; conditions: max 1 µM
Outline: as §1

AZD6738 = compound: C[C@@H]1COCCN1C2=NC(=NC(=C2)C3(CC3)[S@](=N)(=O)C)C4=C5C=CNC5=NC=C4 [AZD6738]; conditions: max 10 µM
Outline: as §1

AZD5991 = compound: Cc1c2c(nn1C)CSCc1cc(n(C)n1)CSc1cc(c3ccccc3c1)OCCCc1c(C(=O)O)n(C)c3c-2c(Cl)ccc13 [AZD5991]; conditions: max 1 µM
Outline: as §1

AZD7648 = compound: Cc1cc2ncnn2cc1Nc1ncc2c(n1)n(C1CCOCC1)c(=O)n2C [AZD7648]; conditions: max 10 µM
Outline: as §1

Taselisib = compound: Cc1nc(-c2cn3c(n2)-c2ccc(-c4cnn(C(C)(C)C(N)=O)c4)cc2OCC3)n(C(C)C)n1 [Taselisib]; conditions: max 10 µM
Outline: as §1

Selumetinib = compound: Cn1cnc2c(F)c(Nc3ccc(Br)cc3Cl)c(C(=O)NOCCO)cc21 [Selumetinib]; conditions: max 10 µM
Outline: as §1

SRA737 = compound: N#Cc1cnc(Nc2cc(NC[C@H]3CNCCO3)c(C(F)(F)F)cn2)cn1 [SRA737]; conditions: max 10 µM
Outline: as §1

MK-2206 = compound: NC1(c2ccc(-c3nc4ccn5c(=O)[nH]nc5c4cc3-c3ccccc3)cc2)CCC1 [MK-2206]; conditions: max 10 µM
Outline: as §1

Gemcitabine = compound: Nc1ccn([C@@H]2O[C@H](CO)[C@@H](O)C2(F)F)c(=O)n1 [Gemcitabine]; conditions: max 0.3 µM
Outline: as §1

[1] = compound: O=C(Nc1ccc2[nH]nc(-c3ccncc3)c2c1)[C@@H]1CCN(CC(=O)N2CCN(c3ccc(-c4ncccn4)cc3)CC2)C1; conditions: max 5 µM
Outline: as §1

Olaparib = compound: O=C(c1cc(Cc2n[nH]c(=O)c3ccccc23)ccc1F)N1CCN(C(=O)C2CC2)CC1 [Olaparib]; conditions: max 10 µM
Outline: as §1

5-Fluorouracil = compound: O=c1[nH]cc(F)c(=O)[nH]1 [5-Fluorouracil]; conditions: max 20 µM
Outline: as §1

Capivasertib = compound: C1CN(CCC1(C(=O)N[C@@H](CCO)C2=CC=C(C=C2)Cl)N)C3=NC=NC4=C3C=CN4 [Capivasertib]; conditions: max 10 µM
Outline: as §1

SG3199 = compound: CC1=CN2[C@@H](C1)C=NC3=CC(=C(C=C3C2=O)OC)OCCCCCOC4=C(C=C5C(=C4)N=C[C@@H]6CC(=CN6C5=O)C)OC [SG3199]; conditions: max 0.001 µM
Outline: as §1

Alisertib = compound: COc1cc(Nc2ncc3c(n2)-c2ccc(Cl)cc2C(c2c(F)cccc2OC)=NC3)ccc1C(=O)O [Alisertib]; conditions: max 10 µM
Outline: as §1

Prexasertib = compound: COc1cccc(OCCCN)c1-c1cc(Nc2cnc(C#N)cn2)n[nH]1 [Prexasertib]; conditions: max 1 µM
Outline: as §1

Doxorubicin = compound: COc1cccc2c1C(=O)c1c(O)c3c(c(O)c1C2=O)C[C@@](O)(C(=O)CO)C[C@@H]3O[C@H]1C[C@H](N)[C@H](O)[C@H](C)O1 [Doxorubicin]; conditions: max 1 µM
Outline: as §1

Cell Line	IC50, cell viability 72 h (Carboplatin)	IC50, cell viability 72 h (AZD5363)	IC50, cell viability 72 h (AZD1775)	IC50, cell viability 72 h (Trametinib)	IC50, cell viability 72 h (Paclitaxel)	IC50, cell viability 72 h (Palbociclib)	IC50, cell viability 72 h (AZD1390)	IC50, cell viability 72 h (Venetoclax)	IC50, cell viability 72 h (Dasatinib)	IC50, cell viability 72 h (AZD2811)	IC50, cell viability 72 h (SN-38)	IC50, cell viability 72 h (AZD0156)	IC50, cell viability 72 h (AZD4320)	IC50, cell viability 72 h (Etoposide)	IC50, cell viability 72 h (Gefitinib)	IC50, cell viability 72 h (AZD5153)	IC50, cell viability 72 h (Lapatinib)	IC50, cell viability 72 h (AZD8186; max 10 µM)	IC50, cell viability 72 h (Crizotinib)	IC50, cell viability 72 h (Savolitinib)	IC50, cell viability 72 h (AZD6738)	IC50, cell viability 72 h (AZD5991)	IC50, cell viability 72 h (AZD7648)	IC50, cell viability 72 h (Taselisib)	IC50, cell viability 72 h (Selumetinib)	IC50, cell viability 72 h (SRA737)	IC50, cell viability 72 h (MK-2206)	IC50, cell viability 72 h (Gemcitabine)	IC50, cell viability 72 h [1]	IC50, cell viability 72 h (Olaparib)	IC50, cell viability 72 h (5-Fluorouracil)	IC50, cell viability 72 h (Capivasertib)	IC50, cell viability 72 h (SG3199)	IC50, cell viability 72 h (Alisertib)	IC50, cell viability 72 h (Prexasertib)	IC50, cell viability 72 h (Doxorubicin)	IC50, cell viability 72 h (AZD8186; max 3 µM)
HCC-44 (Lung Adenocarcinoma)	> 10 µM	9.96 µM	934 nM	236 nM	13.6 nM	> 10 µM	> 300 nM	> 1000 nM	705 nM	> 1000 nM	177 nM	> 3000 nM	> 1000 nM	> 10 µM	> 10 µM	290 nM	> 10 µM	> 10000 nM	8.92 µM	> 1000 nM	> 10 µM	> 1000 nM	> 10 µM	2240 nM	> 10 µM	> 10 µM	> 10 µM	225 nM	2800 nM	> 10 µM	> 20 µM						
HuO-3N1 (Osteosarcoma)			> 3000 nM	> 1000 nM		> 10 µM	> 300 nM	> 1000 nM	305 nM	> 1000 nM	275 nM	> 3000 nM	> 1000 nM		> 10 µM	> 1000 nM	> 10 µM		> 10 µM	> 1000 nM	> 10 µM	613 nM	> 10 µM	6880 nM	> 10 µM		> 10 µM			> 10 µM		> 10 µM	> 1 nM	> 10000 nM	529 nM	616 nM	> 3000 nM
RL95-2 (Endometrial Carcinoma)			490 nM	540 nM		> 10 µM	> 300 nM	> 1000 nM	> 2000 nM	305 nM	> 300 nM	> 3000 nM	> 1000 nM		> 10 µM	> 1000 nM	> 10 µM		> 10 µM	> 1000 nM	8.39 µM	266 nM	> 10 µM	> 10000 nM	9.13 µM					> 10 µM		1.4 µM	> 1 nM	2140 nM	93.8 nM	> 1000 nM	> 3000 nM
RPMI-8866 (Chronic Myelogenous Leukemia)			349 nM	> 1000 nM		2.71 µM	> 300 nM	> 1000 nM	1130 nM	449 nM	4.48 nM	> 3000 nM	362 nM		> 10 µM	47.6 nM	> 10 µM		5.73 µM	> 1000 nM	0.926 µM	> 1000 nM	> 10 µM	2450 nM	> 10 µM					> 10 µM		> 10 µM	> 1 nM	153 nM	10 nM	125 nM	> 3000 nM
RT4 (Bladder Carcinoma)			2260 nM	328 nM		> 10 µM	> 300 nM	> 1000 nM	> 2000 nM	> 1000 nM	43.4 nM	> 3000 nM	> 1000 nM		> 10 µM	840 nM	> 10 µM		> 10 µM	> 1000 nM	> 10 µM	> 1000 nM	> 10 µM	> 10000 nM	> 10 µM					> 10 µM		> 10 µM	> 1 nM	2400 nM	> 1000 nM	642 nM	> 3000 nM
SJRH30 (Rhabdomyosarcoma)			317 nM	> 1000 nM		> 10 µM	> 300 nM	> 1000 nM	> 2000 nM	> 1000 nM	> 300 nM	> 3000 nM	> 1000 nM		> 10 µM	> 1000 nM	> 10 µM		5.22 µM	> 1000 nM	3.8 µM	980 nM	> 10 µM	1470 nM	> 10 µM		> 10 µM			> 10 µM		4.7 µM	> 1 nM	9410 nM	15.9 nM	967 nM	> 3000 nM
SNU-175 (Colorectal Carcinoma)			365 nM	547 nM		8.34 µM	> 300 nM	> 1000 nM	> 2000 nM	65.6 nM	208 nM	> 3000 nM	> 1000 nM		9.29 µM	236 nM	> 10 µM		4.58 µM	> 1000 nM	> 10 µM	> 1000 nM	> 10 µM	> 10000 nM	> 10 µM					> 10 µM		> 10 µM	> 1 nM	377 nM	761 nM	502 nM	> 3000 nM
